How the values were obtained:
[1] = system: IL-1β, human peripheral blood mononuclear cells (PBMC); experiment: PBMC cell assay: IL-1β assay with human PBMC or enriched adherent mononuclear cells, LPS-stimulated; type: cell-based
Method in brief: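 Mature IL-1β is measured by ELISA in supernatants after 16–18 hr at 37 °C, 5% CO2, with LPS (5 ng/ml final) and test compound (0.1% DMSO final). Cells are human PBMC (6×10^6 cells/ml) or plate-adherent mononuclear cells (2.5−3.0×10^5 per well), and the 5–6 compound concentrations span the ICE Ki.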

[2] = In vivo rat clearance assay; details: for clearance: plasma, iv
Method in brief: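 Rats cannulated a day beforehand received 10–20 mg/kg by intravenous jugular dosing in propylene glycol/saline with 100 mM sodium bicarbonate. Carotid blood was sampled from 0 to 90 min, and plasma was extracted with acetonitrile/0.1% TFA for HPLC quantification. Clearance from non-linear regression pharmacokinetic analysis.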

[3] = Homo sapiens, PBMC, * = values obtained upon reassay
[4] = * = values obtained upon reassay

Molecule	clearance ([2]; 10-20 mg/kg)	clearance ([2]; Table 17)	IC50 [1, 3]	IC50 ([1]; Homo sapiens, PBMC, Table 17)	further results
CC(=O)Nc1ccc(C(=O)N[C@H]2CCC(=O)N3CCC[C@@H](C(=O)N[C@H](C=O)CC(=O)O)N3C2=O)cc1Cl [Compound 214l, [3S(1S,9S)]3-(9-(3-Chloro-4-acetamidobenzoyl)amino-6,10-dioxo-1,2,3,4,7,8,9,10-octahydro-6H-pyridazino[1,2-a][1,2]diazepine-1-carboxamido)-4-oxobutanoic acid]	–	12 mL/min/kg	–	1.9 µM	–
O=C[C@H](CC(=O)O)NC(=O)[C@@H]1CCCN2C(=O)CC[C@H](NC(=O)c3nccc4ccccc34)C(=O)N12 [Compound 412, [3S(1S,9S)]3-[6,10-Dioxo-9-(isoquinolin-1-oylamino)-1,2,3,4,7,8,9,10-octahydro-6H-pyridazino[1,2-a][1,2]diazepine-1-carboxamido]-4-oxobutanoic acid]	25 mL/min/kg	–	0.58 µM	–	IC50 [1, 4]: 0.66 µM
O=C[C@H](CC(=O)O)NC(=O)[C@@H]1CCCN2C(=O)CC[C@H](NC(=O)c3ccc(Cl)cc3)C(=O)N12 [Compound 416]	47 mL/min/kg	–	1.2 µM	–	–
O=C[C@H](CC(=O)O)NC(=O)[C@@H]1CCCN2C(=O)CC[C@H](NC(=O)c3ccc(NC(=O)Cc4ccccc4)cc3)C(=O)N12 [Compound 486, [3S(1S,9S)]3-{6,10-Dioxo-1,2,3,4,7,8,9,10-octahydro-9-[4-(phenylacetamido)benzamido]-6H-pyridazino[1,2-a][1,2]diazepine-1-carboxamido}-4-oxobutanoic acid]	37 mL/min/kg	–	0.48 µM	–	IC50 [1, 4]: 0.57 µM
O=C[C@H](CC(=O)O)NC(=O)[C@@H]1CCCN2C(=O)CCN(NC(=O)c3ccc4c(c3)OCO4)C(=O)N12 [Compound 1015, [3S(4S)]3-[6,10-Dioxo-7-(3,4-methylenedioxybenzoylamino)-1,2,3,4,7,8,9,10-octahydro-6H-pyridazino[1,2-a][1,2,4]triazepine-4-carboxamido]-4-oxobutanoic acid]	23 mL/min/kg	–	2.5 µM	–	–
CC(=O)Nc1cccc(C(=O)N[C@H]2CCC(=O)N3CCC[C@@H](C(=O)N[C@H](C=O)CC(=O)O)N3C2=O)c1 [Compound 450, [3S(1S,9S)]3-{9-[(3-Acetamido)benzamido]-6,10-dioxo-1,2,3,4,7,8,9,10-octahydro-6H-pyridazino[1,2-a][1,2]diazepine-1-carboxamido}-4-oxobutanoic acid]	12 mL/min/kg	–	0.8 µM	–	–
Cc1cc(C(=O)N[C@H]2CN(C(=O)CO)c3ccccc3N(CC(=O)N[C@H](C=O)CC(=O)O)C2=O)cc(C)c1O [Compound 691a, (3S)-3-[(3S)-2-Oxo-3-(3,5-dimethyl-4-hydroxybenzoyl)amino-5-hydroxyacetyl-2,3,4,5-tetrahydro-1H-1,5-benzodiazepine-1-acetylamino]-4-oxo-butyric acid]	–	9.9 mL/min/kg	–	2.9 µM	–
O=C[C@H](CC(=O)O)NC(=O)[C@@H]1CCCN2C(=O)CC[C@H](NC(=O)c3cc4ccccc4[nH]3)C(=O)N12 [Compound 475, [3S(1S,9S)]3-[6,10-Dioxo-9-(indol-2-oylamino)-1,2,3,4,7,8,9,10-octahydro-6H-pyridazino[1,2-a][1,2]diazepine-1-carboxamido]-4-oxobutanoic acid]	21 mL/min/kg	–	0.69 µM	–	IC50 [1, 4]: 0.65 µM
[3S(1S,9S)]3-[(6,10-Dioxo-9-(methanesulphonylamino)-1,2,3,4,7,8,9,10-octahydro-6H-pyridazino[1,2-a][1,2]diazepine-1-carboxamido]-5-(5-methyl-3-phenylisoxazoyloxy)-4-oxopentanoic acid [505 b]	–	–	–	–	IC50 ([1]; Table 18): 1.5 µM; Clearance Rat, i.v. ([2]; Table 18): 196 mL/min/kg
COC(=O)N[C@H]1CCC(=O)N2CCC[C@@H](C(=O)N[C@@H](CC(=O)O)C(=O)COC(=O)c3c(C)cccc3C)N2C1=O [Compound 285, [3S(1S,9S)]5-(2,6-Dimethylbenzoyloxy)-3-[6,10-dioxo-9-(methoxycarbonyl)amino-1,2,3,4,7,8,9,10-octahydro-6H-pyridazino[1,2-a][1,2]diazepine-1-carboxamido]-4-oxopentanoic acid]	50 mL/min/kg	–	0.81 µM	–	–
O=C[C@H](CC(=O)O)NC(=O)[C@@H]1CCCN2C(=O)CCN(NC(=O)c3ccccc3)C(=O)N12 [Compound 265, [3S(4S)]3-(7-Benzamido-6,10-dioxo-1,2,3,4,7,8,9,10-octahydro-6H-pyridazino[1,2-a][1,2,4]triazepine-4-carboxamido)-4-oxobutanoic acid]	20 mL/min/kg	–	4.3 µM	–	–
O=C[C@H](CC(=O)O)NC(=O)[C@@H]1CCCN2C(=O)CC[C@H](NC(=O)CCc3ccccc3)C(=O)N12 [Compound 47a, [3S(1S,9S)]3-(6,10-Dioxo-octahydro-9-(3-phenylpropionylamino)-6H-pyridazino[1,2-a][1,2]diazepine-1-carboxamido)-4-oxobutanoic acid]	32 mL/min/kg	–	2.6 µM	–	–

Further lines, with some results ahead:

clearance ([2]; 10-20 mg/kg)	clearance ([2]; Table 17)	Molecule	IC50 [1, 3]	IC50 ([1]; Homo sapiens, PBMC, Table 17)	further results
104 mL/min/kg	–	O=C(O)C[C@H](NC(=O)[C@@H]1CCCN2C(=O)CC[C@H](NC(=O)c3ccccc3)C(=O)N12)C(=O)COc1cccnc1 [Compound 283, [3S(1S,9S)]3-[9-Benzoylamino-6,10-dioxo-1,2,3,4,7,8,9,10-octahydro-6H-pyridazino[1,2-a][1,2]diazepine-1-carboxamido]-4-oxo-5-(3-pyridyloxy)pentanoic acid]	< 0.2 µM	–	–
15 mL/min/kg	–	CC(C)C(=O)Nc1ccc(C(=O)N[C@H]2CCC(=O)N3CCC[C@@H](C(=O)N[C@H](C=O)CC(=O)O)N3C2=O)cc1 [Compound 484]	1.55 µM	–	IC50 [1, 4]: 1.4 µM
–	9.1 mL/min/kg	CC(=O)Nc1ccc(C(=O)NN2CCC(=O)N3CCC[C@@H](C(=O)N[C@H](C=O)CC(=O)O)N3C2=O)cc1 [Compound 1018, [3S(4S)]3-{7-[(4-Acetamido)benzamido]-6,10-Dioxo-1,2,3,4,7,8,9,10-octahydro-6H-pyridazino[1,2-a][1,2,4]-triazepine-4-carboxamido}-4-oxobutanoic acid]	–	4 µM	–
–	33.2 mL/min/kg	CC(=O)N1C[C@H](NC(=O)c2cc(C)c(O)c(C)c2)C(=O)N(CC(=O)N[C@H](C=O)CC(=O)O)c2ccccc21 [Compound 671, (3S)-3-[(3S)-2-Oxo-3-(3,5-dimethyl-4-hydroxybenzoyl)amino-5-acetyl-2,3,4,5-tetrahydro-1H-1,5-benzodiazepine-1-acetylamino]-4-oxo-butyric acid]	–	2 µM	–
–	13 mL/min/kg	O=C[C@H](CC(=O)O)NC(=O)CN1C(=O)[C@@H](NC(=O)c2nccc3ccccc23)CN(C(=O)CO)c2ccccc21 [Compound 696, (3S)-3-[(3S)-2-Oxo-3-(isoquinolin-1-oyl)amino-5-hydroxyacetyl-2,3,4,5-tetrahydro-1H-1,5-benzodiazepine-1-acetylamino]-4-oxo-butyric acid]	–	2 µM	–
–	14.5 mL/min/kg	O=C[C@H](CC(=O)O)NC(=O)[C@@H]1CCCN2C(=O)CCN(NC(=O)c3cc4ccccc4[nH]3)C(=O)N12 [Compound 1075, [3S(4S)]3-[6,10-Dioxo-7-(indole-2-carboxamido)-1,2,3,4,7,8,9,10-octahydro-6H-pyridazino[1,2-a][1,2,4]triazepine-4-carboxamido]-4-oxobutanoic acid]	–	5 µM	–
26 mL/min/kg	–	N#C[C@H](CC(=O)O)NC(=O)[C@@H]1CCCN2C(=O)CC[C@H](NC(=O)c3ccccc3)C(=O)N12 [Compound 232e, [3S(1S,9S)]9-(Benzoylamino)-3-[6,10-dioxo-1,2,3,4,7,8,9,10-octahydro-6H-pyridazino-[1,2-a][1,2]diazepine-1-carboxamido]-3-cyanopropanoic acid]	4.5 µM	–	–
100 mL/min/kg	–	COC(=O)N[C@H]1CCC(=O)N2CCC[C@@H](C(=O)N[C@@H](CC(=O)O)C(=O)COC(=O)c3c(Cl)cccc3Cl)N2C1=O [Compound 284, [3S(1S,9S)]5-(2,6-Dichlorobenzoyloxy)-3-[6,10-dioxo-9-(methoxycarbonyl)amino-1,2,3,4,7,8,9,10-octahydro-6H-pyridazino[1,2-a][1,2]diazepine-1-carboxamido]-4-oxopentanoic acid]	0.47 µM	–	–
20 mL/min/kg	–	O=C[C@H](CC(=O)O)NC(=O)[C@@H]1CCCN2C(=O)CC[C@H](NC(=O)c3ccsc3)C(=O)N12 [Compound 410]	2 µM	–	–
–	34 mL/min/kg	O=C[C@H](CC(=O)O)NC(=O)[C@@H]1CCCN2C(=O)CCN(NC(=O)c3cc4ccccc4s3)C(=O)N12 [Compound 1053, [3S(4S)]3-[7-(Benzo[b]thiophene-2-carbonyl)amino-6,10-dioxo-1,2,3,4,7,8,9,10-octahydro-6H-pyridazino[1,2-a][1,2,4]triazepine-4-carboxamido]-4-oxobutanoic acid]	–	2 µM	–

From patent US20120165319A1, “INHIBITORS OF INTERLEUKIN-1 BETA CONVERTING ENZYME” (VERTEX PHARMACEUTICALS INCORPORATED, priority 1995, published 2012)
